Assay results taken from patent publication US20240300932A1, “N-PHENYLIMINE DERIVATIVE AND PREPARATION METHOD AND USE THEREOF” (Guizhou University, priority 2023, published 2024).

Columns and labels:
Assay in all cases: Post-emergence herbicidal activity test (stem and leaf spray, pot culture)
Type in all cases: in vivo
Settings in all cases: 3 weeks after spraying
Abutilon theophrasti = tested on: Abutilon theophrasti
Description: (§1) The weeds were cultivated in a 180 mm×140 mm plastic nutrient pot by a pot-culture method, placed in an enamel tray, and the plastic nutrient pots were filled with surface soil (⅘ of a depth) collected from a farmland and air-dried and sieved, and a soil humidity was controlled at 20% in the initial stage. Weed seeds with plump and uniform grains were selected, soaked in warm water at 25° C. for 6 h, and germinated in a biochemical incubator (dark) at 28° C. The freshly exposed weed seeds were evenly placed on the soil surface, and then covered with 0.5 cm to 1 cm of soil according to the size of the seeds. The weeds are cultivated in a controlled sunlight greenhouse at 20° C. to 30° C., under natural light, and a relative humidity of 57% to 72%. The soil was loam, including 1.63% of organic matters, with a pH value of 7, 84.3 mg/kg of alkaline nitrogen, 38.5 mg/kg of available phosphorus, and 82.1 mg/kg of available potassium.
(§2) Each treatment was repeated 2 times, each treatment included 12 pots, and 20 weed seeds were sown in each pot. Pesticide was applied in the test for 1 time in total. When the weeds grew to 1.5- to 2-leaf stage, thinning was conducted, with 10 weeds in each pot, and 30 weeds were kept in each treatment.
(§3) The cultivated weeds were placed on trays with an area of 0.1 m^2, and stems and leaves were sprayed with a sprayer. After applying a pesticide, the pesticide applied weeds were moved into a greenhouse for routine cultivation.
(§4) 2 weeks after sowing, the test plants were treated at the 2- to 3-leaf stage: the compounds of the present disclosure for testing were dissolved in acetone separately, and added with Tween 80, an emulsifiable oil of 1.5 liters/ha methyl oleate was added as a synergist, and an obtained mixture was diluted with certain water to a certain concentration solution. The solution was sprayed onto the plants using a spray tower. After spraying, the weeds were cultivated in the greenhouse for 3 weeks, and the experimental effects on the weeds were counted. The effective concentrations of the compounds were 10 g/mu, 5 g/mu, and 2.5 g/mu, the experiment was repeated three times, and an average result was taken.
(§5) The activity level criteria for plant destruction (i.e. growth control rate) are as follows: • Grade 5: the growth control rate is greater than or equal to 85%; • Grade 4: the growth control rate is greater than or equal to 60% and less than 85%; • Grade 3: the growth control rate is greater than or equal to 40% and less than 60%; • Grade 2: the growth control rate is greater than or equal to 20% and less than 40%; • Grade 1: the growth control rate is greater than or equal to 5% and less than 20%; and • Grade 0: the growth control rate is less than 5%.
(§6) The growth control rate is a fresh weight control rate.

Amaranthus retroflexus = tested on: Amaranthus retroflexus
Description: as §1, §2, §3, §4, §5, §6

Echinochloa crusgalli = tested on: Echinochloa crusgalli
Description: as §1, §2, §3, §4, §5, §6

Portulaca oleracea = tested on: Portulaca oleracea
Description: as §1, §2, §3, §4, §5, §6

Setaria viridis = tested on: Setaria viridis
Description: as §1, §2, §3, §4, §5, §6

Trifoliumre pensL. = tested on: Trifoliumre pensL.
Description: (1) Post-Emergence Stem and Leaf Spray Treatment: The weeds were cultivated in a 180 mm×140 mm plastic nutrient pot by a pot-culture method, placed in an enamel tray, and the plastic nutrient pots were filled with surface soil (⅘ of a depth) collected from a farmland and air-dried and sieved, and a soil humidity was controlled at 20% in the initial stage. Weed seeds with plump and uniform grains were selected, soaked in warm water at 25° C. for 6 h, and germinated in a biochemical incubator (dark) at 28° C. The freshly exposed weed seeds were evenly placed on the soil surface, and then covered with 0.5 cm to 1 cm of soil according to the size of the seeds. The weeds are cultivated in a controlled sunlight greenhouse at 20° C. to 30° C., under natural light, and a relative humidity of 57% to 72%. The soil was loam, including 1.63% of organic matters, with a pH value of 7, 84.3 mg/kg of alkaline nitrogen, 38.5 mg/kg of available phosphorus, and 82.1 mg/kg of available potassium. Each treatment was repeated 2 times, each treatment included 12 pots, and 20 weed seeds were sown in each pot. Pesticide was applied in the test for 1 time in total. When the weeds grew to 1.5- to 2-leaf stage, thinning was conducted, with 10 weeds in each pot, and 30 weeds were kept in each treatment. The cultivated weeds were placed on trays with an area of 0.1 m^2, and stems and leaves were sprayed with a sprayer. After applying a pesticide, the pesticide applied weeds were moved into a greenhouse for routine cultivation. 2 weeks after sowing, the test plants were treated at the 2- to 3-leaf stage: the compounds of the present disclosure for testing were dissolved in acetone separately, and added with Tween 80, an emulsifiable oil of 1.5 liters/ha methyl oleate was added as a synergist, and an obtained mixture was diluted with certain water to a certain concentration solution. The solution was sprayed onto the plants using a spray tower. After spraying, the weeds were cultivated in the greenhouse for 3 weeks, and the experimental effects on the weeds were counted. The effective concentrations of the compounds were 10 g/mu, 5 g/mu, and 2.5 g/mu, the experiment was repeated three times, and an average result was taken.

SMILES	Post-emergence herbicidal activity, A. theophrasti (grade) (Abutilon theophrasti; dosage 2.5 g/mu)	Post-emergence herbicidal activity, A. theophrasti (grade) (Abutilon theophrasti; dosage 5 g/mu)	Post-emergence herbicidal activity, A. theophrasti (grade) (Abutilon theophrasti; dosage 10 g/mu)	Post-emergence herbicidal activity, A. retroflexus (grade) (Amaranthus retroflexus; dosage 2.5 g/mu)	Post-emergence herbicidal activity, A. retroflexus (grade) (Amaranthus retroflexus; dosage 5 g/mu)	Post-emergence herbicidal activity, A. retroflexus (grade) (Amaranthus retroflexus; dosage 10 g/mu)	Post-emergence herbicidal activity, E. crusgalli (grade) (Echinochloa crusgalli; dosage 2.5 g/mu)	Post-emergence herbicidal activity, E. crusgalli (grade) (Echinochloa crusgalli; dosage 5 g/mu)	Post-emergence herbicidal activity, E. crusgalli (grade) (Echinochloa crusgalli; dosage 10 g/mu)	Post-emergence herbicidal activity, P. oleracea (grade) (Portulaca oleracea; dosage 2.5 g/mu)	Post-emergence herbicidal activity, P. oleracea (grade) (Portulaca oleracea; dosage 5 g/mu)	Post-emergence herbicidal activity, P. oleracea (grade) (Portulaca oleracea; dosage 10 g/mu)	Post-emergence herbicidal activity, S. viridis (grade) (Setaria viridis; dosage 2.5 g/mu)	Post-emergence herbicidal activity, S. viridis (grade) (Setaria viridis; dosage 5 g/mu)	Post-emergence herbicidal activity, S. viridis (grade) (Setaria viridis; dosage 10 g/mu)	Post-emergence herbicidal activity, Trifoliumre pensL. (grade) (Trifoliumre pensL.; dosage 2.5 g/mu)	Post-emergence herbicidal activity, Trifoliumre pensL. (grade) (Trifoliumre pensL.; dosage 5 g/mu)	Post-emergence herbicidal activity, Trifoliumre pensL. (grade) (Trifoliumre pensL.; dosage 10 g/mu)
O=C1C2=C(CCCC2)C(=O)N1c1cc(OCc2nc(-c3ccc(Cl)cc3)no2)c(Cl)cc1F [Compound A5]	5 (Grade 5: the growth control rate is greater than or equal to 85%)	5 (Grade 5: the growth control rate is greater than or equal to 85%)	5 (Grade 5: the growth control rate is greater than or equal to 85%)	5 (Grade 5: the growth control rate is greater than or equal to 85%)	5 (Grade 5: the growth control rate is greater than or equal to 85%)	5 (Grade 5: the growth control rate is greater than or equal to 85%)	1 (Grade 1: the growth control rate is greater than or equal to 5% and less than 20%)	2 (Grade 2: the growth control rate is greater than or equal to 20% and less than 40%)	3 (Grade 3: the growth control rate is greater than or equal to 40% and less than 60%)	5 (Grade 5: the growth control rate is greater than or equal to 85%)	5 (Grade 5: the growth control rate is greater than or equal to 85%)	5 (Grade 5: the growth control rate is greater than or equal to 85%)	2 (Grade 2: the growth control rate is greater than or equal to 20% and less than 40%)	3 (Grade 3: the growth control rate is greater than or equal to 40% and less than 60%)	4 (Grade 4: the growth control rate is greater than or equal to 60% and less than 85%)	5 (Grade 5: the growth control rate is greater than or equal to 85%)	5 (Grade 5: the growth control rate is greater than or equal to 85%)	5 (Grade 5: the growth control rate is greater than or equal to 85%)
O=C1C2=C(CCCC2)C(=O)N1c1cc(OCc2nc(-c3ccc(F)cc3F)no2)c(Cl)cc1F [Compound A6]	5 (Grade 5: the growth control rate is greater than or equal to 85%)	5 (Grade 5: the growth control rate is greater than or equal to 85%)	5 (Grade 5: the growth control rate is greater than or equal to 85%)	5 (Grade 5: the growth control rate is greater than or equal to 85%)	5 (Grade 5: the growth control rate is greater than or equal to 85%)	5 (Grade 5: the growth control rate is greater than or equal to 85%)	1 (Grade 1: the growth control rate is greater than or equal to 5% and less than 20%)	2 (Grade 2: the growth control rate is greater than or equal to 20% and less than 40%)	3 (Grade 3: the growth control rate is greater than or equal to 40% and less than 60%)	4 (Grade 4: the growth control rate is greater than or equal to 60% and less than 85%)	5 (Grade 5: the growth control rate is greater than or equal to 85%)	5 (Grade 5: the growth control rate is greater than or equal to 85%)	2 (Grade 2: the growth control rate is greater than or equal to 20% and less than 40%)	3 (Grade 3: the growth control rate is greater than or equal to 40% and less than 60%)	4 (Grade 4: the growth control rate is greater than or equal to 60% and less than 85%)	4 (Grade 4: the growth control rate is greater than or equal to 60% and less than 85%)	5 (Grade 5: the growth control rate is greater than or equal to 85%)	5 (Grade 5: the growth control rate is greater than or equal to 85%)
O=C1C2=C(CCCC2)C(=O)N1c1cc(OCc2nc(-c3ccc(Cl)cc3F)no2)c(Cl)cc1F [Compound A7]	5 (Grade 5: the growth control rate is greater than or equal to 85%)	5 (Grade 5: the growth control rate is greater than or equal to 85%)	5 (Grade 5: the growth control rate is greater than or equal to 85%)	5 (Grade 5: the growth control rate is greater than or equal to 85%)	5 (Grade 5: the growth control rate is greater than or equal to 85%)	5 (Grade 5: the growth control rate is greater than or equal to 85%)	1 (Grade 1: the growth control rate is greater than or equal to 5% and less than 20%)	2 (Grade 2: the growth control rate is greater than or equal to 20% and less than 40%)	3 (Grade 3: the growth control rate is greater than or equal to 40% and less than 60%)	4 (Grade 4: the growth control rate is greater than or equal to 60% and less than 85%)	5 (Grade 5: the growth control rate is greater than or equal to 85%)	5 (Grade 5: the growth control rate is greater than or equal to 85%)	2 (Grade 2: the growth control rate is greater than or equal to 20% and less than 40%)	3 (Grade 3: the growth control rate is greater than or equal to 40% and less than 60%)	4 (Grade 4: the growth control rate is greater than or equal to 60% and less than 85%)	4 (Grade 4: the growth control rate is greater than or equal to 60% and less than 85%)	5 (Grade 5: the growth control rate is greater than or equal to 85%)	5 (Grade 5: the growth control rate is greater than or equal to 85%)
